Source: ChEMBL document CHEMBL5346912, “Discovery of 3,5-diaryl-1H-pyrazol-based ureas as potent RET inhibitors” (Eur J Med Chem, 2023)
Activity calls are given as the source filed them. No cut-off for these calls is given here.

Columns and labels:
[1] = system: BaF3; assay: Antiproliferative activity against mouse BaF3 cells expressing CCDC6-RET incubated for 72 hrs by CCK8 assay; type: functional, cell-based; conditions: BaF3, 72 h
[2] = system: BaF3; assay: Antiproliferative activity against mouse BaF3 cells expressing CCDC6-RET-G810C incubated for 72 hrs by CCK8 assay; type: functional, cell-based; conditions: BaF3, 72 h
[3] = system: BaF3; assay: Antiproliferative activity against mouse BaF3 cells expressing CCDC6-RET-V804M incubated for 72 hrs by CCK8 assay; type: functional, cell-based; conditions: BaF3, 72 h
[4] = system: BaF3; assay: Antiproliferative activity against mouse BaF3 cells expressing CCDC6-RET-G810R incubated for 72 hrs by CCK8 assay; type: functional, cell-based; conditions: BaF3, 72 h
[5] = target: T1, Proto-oncogene tyrosine-protein kinase receptor Ret (Homo sapiens, UniProt P07949); assay: Binding affinity to RET (unknown origin) assessed as dissociation constant in presence of ATP by FRET based Z'-Lyte assay
T1 sequence (P07949 whole entry): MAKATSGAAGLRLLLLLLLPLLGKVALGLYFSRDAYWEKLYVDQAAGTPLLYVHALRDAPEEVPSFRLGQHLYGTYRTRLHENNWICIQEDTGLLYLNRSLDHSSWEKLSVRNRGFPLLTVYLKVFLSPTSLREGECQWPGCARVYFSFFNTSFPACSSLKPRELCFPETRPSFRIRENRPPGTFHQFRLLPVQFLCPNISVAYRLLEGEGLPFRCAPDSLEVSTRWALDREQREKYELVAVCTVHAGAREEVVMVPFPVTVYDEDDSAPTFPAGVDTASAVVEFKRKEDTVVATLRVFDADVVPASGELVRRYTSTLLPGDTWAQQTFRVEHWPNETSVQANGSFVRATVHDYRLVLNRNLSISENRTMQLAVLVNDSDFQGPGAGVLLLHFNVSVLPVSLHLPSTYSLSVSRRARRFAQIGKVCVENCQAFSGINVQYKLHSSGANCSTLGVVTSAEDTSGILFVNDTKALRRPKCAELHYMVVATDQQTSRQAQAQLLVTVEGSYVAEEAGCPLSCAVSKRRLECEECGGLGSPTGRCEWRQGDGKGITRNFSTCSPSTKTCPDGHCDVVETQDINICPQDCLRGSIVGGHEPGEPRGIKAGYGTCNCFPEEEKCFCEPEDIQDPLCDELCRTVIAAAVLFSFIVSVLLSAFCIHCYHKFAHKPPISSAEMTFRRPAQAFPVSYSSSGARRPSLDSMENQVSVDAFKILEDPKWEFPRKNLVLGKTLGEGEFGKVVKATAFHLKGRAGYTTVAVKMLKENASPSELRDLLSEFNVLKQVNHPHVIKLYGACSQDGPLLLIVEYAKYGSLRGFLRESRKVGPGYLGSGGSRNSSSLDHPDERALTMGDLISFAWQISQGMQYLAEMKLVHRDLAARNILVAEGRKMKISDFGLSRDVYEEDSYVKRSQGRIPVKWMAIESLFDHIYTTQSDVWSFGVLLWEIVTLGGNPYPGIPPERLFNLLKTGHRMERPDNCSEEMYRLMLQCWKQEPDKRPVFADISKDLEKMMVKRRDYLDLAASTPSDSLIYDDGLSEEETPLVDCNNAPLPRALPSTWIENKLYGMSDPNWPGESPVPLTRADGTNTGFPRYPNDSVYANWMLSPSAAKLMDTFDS

[6] = system: BaF3; assay: cells; conditions: Mus musculus, BaF3, 72 h
Description: Antiproliferative activity against mouse BaF3 cells incubated for 72 hrs by CCK8 assay

[7] = target: T1, Proto-oncogene tyrosine-protein kinase receptor Ret; assay: Inhibition of RET (unknown origin) by DiscoverX KINOMEscan assay
[8] = target: Proto-oncogene tyrosine-protein kinase receptor Ret (Mus musculus) (UniProt P35546); assay: Inhibition of RET signalling pathway in mouse BaF3 cells harboring CCDC6-RET assessed as suppression of SHC activation at 33.3 nM incubated for 4 hrs by Western blot analysis; type: cell-based
Chain of Proto-oncogene tyrosine-protein kinase receptor Ret (Mus musculus) (P35546 whole entry): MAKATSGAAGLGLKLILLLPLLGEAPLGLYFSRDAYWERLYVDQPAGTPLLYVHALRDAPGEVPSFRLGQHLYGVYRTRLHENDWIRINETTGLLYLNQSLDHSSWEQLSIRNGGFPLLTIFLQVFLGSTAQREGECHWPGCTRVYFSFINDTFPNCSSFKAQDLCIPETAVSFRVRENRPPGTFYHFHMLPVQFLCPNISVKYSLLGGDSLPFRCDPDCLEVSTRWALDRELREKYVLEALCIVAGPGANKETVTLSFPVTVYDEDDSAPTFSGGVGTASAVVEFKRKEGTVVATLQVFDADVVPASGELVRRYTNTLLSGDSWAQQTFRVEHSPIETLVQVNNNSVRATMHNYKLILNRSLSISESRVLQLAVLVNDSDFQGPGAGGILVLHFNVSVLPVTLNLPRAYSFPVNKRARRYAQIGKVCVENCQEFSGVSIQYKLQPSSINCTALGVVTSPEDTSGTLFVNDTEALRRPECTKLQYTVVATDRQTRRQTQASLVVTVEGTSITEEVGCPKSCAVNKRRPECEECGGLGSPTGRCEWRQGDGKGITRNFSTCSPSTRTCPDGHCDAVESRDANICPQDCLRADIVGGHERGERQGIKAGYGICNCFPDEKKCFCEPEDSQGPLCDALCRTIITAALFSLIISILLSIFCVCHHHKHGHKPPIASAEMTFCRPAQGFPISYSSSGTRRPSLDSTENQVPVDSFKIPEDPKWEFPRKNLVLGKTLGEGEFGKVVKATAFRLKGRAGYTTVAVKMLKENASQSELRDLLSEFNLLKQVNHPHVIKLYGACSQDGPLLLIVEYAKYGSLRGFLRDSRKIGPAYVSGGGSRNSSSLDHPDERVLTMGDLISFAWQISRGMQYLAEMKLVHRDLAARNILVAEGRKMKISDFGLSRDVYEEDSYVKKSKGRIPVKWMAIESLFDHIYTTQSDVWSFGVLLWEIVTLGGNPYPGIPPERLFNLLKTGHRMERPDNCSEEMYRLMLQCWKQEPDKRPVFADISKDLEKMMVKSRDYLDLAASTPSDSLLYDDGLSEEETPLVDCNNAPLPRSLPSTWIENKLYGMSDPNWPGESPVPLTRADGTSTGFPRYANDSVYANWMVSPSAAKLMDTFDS

[9] = target: Proto-oncogene tyrosine-protein kinase receptor Ret (Mus musculus) (UniProt P35546); assay: Inhibition of RET signalling pathway in mouse BaF3 cells harboring CCDC6-RET-G810C mutant assessed as suppression of RET phosphorylation at 33.3 nM incubated for 4 hrs by Western blot analysis; type: cell-based
[10] = Half life in fasted Sprague-Dawley rat at 25 mg/kg, po; type: ADME, organism-based; conditions: in vivo
[11] = AUC (0 to infinity) in fasted Sprague-Dawley rat at 25 mg/kg, po; type: ADME, organism-based; set-up: dose 25 mg/kg, route po; conditions: in vivo
[12] = target: Platelet-derived growth factor receptor beta (Homo sapiens, UniProt P09619); assay: Inhibition of PDGFRB (unknown origin) by DiscoverX KINOMEscan assay
[13] = target: Proto-oncogene tyrosine-protein kinase receptor Ret (Mus musculus) (UniProt P35546); assay: Inhibition of RET signalling pathway in mouse BaF3 cells harboring CCDC6-RET assessed as suppression of RET phosphorylation at 33.3 nM incubated for 4 hrs by Western blot analysis; type: cell-based
[14] = target: Mast/stem cell growth factor receptor Kit (Homo sapiens, UniProt P10721); assay: Inhibition of KIT (unknown origin) by DiscoverX KINOMEscan assay
Chain of Mast/stem cell growth factor receptor Kit (P10721 whole entry): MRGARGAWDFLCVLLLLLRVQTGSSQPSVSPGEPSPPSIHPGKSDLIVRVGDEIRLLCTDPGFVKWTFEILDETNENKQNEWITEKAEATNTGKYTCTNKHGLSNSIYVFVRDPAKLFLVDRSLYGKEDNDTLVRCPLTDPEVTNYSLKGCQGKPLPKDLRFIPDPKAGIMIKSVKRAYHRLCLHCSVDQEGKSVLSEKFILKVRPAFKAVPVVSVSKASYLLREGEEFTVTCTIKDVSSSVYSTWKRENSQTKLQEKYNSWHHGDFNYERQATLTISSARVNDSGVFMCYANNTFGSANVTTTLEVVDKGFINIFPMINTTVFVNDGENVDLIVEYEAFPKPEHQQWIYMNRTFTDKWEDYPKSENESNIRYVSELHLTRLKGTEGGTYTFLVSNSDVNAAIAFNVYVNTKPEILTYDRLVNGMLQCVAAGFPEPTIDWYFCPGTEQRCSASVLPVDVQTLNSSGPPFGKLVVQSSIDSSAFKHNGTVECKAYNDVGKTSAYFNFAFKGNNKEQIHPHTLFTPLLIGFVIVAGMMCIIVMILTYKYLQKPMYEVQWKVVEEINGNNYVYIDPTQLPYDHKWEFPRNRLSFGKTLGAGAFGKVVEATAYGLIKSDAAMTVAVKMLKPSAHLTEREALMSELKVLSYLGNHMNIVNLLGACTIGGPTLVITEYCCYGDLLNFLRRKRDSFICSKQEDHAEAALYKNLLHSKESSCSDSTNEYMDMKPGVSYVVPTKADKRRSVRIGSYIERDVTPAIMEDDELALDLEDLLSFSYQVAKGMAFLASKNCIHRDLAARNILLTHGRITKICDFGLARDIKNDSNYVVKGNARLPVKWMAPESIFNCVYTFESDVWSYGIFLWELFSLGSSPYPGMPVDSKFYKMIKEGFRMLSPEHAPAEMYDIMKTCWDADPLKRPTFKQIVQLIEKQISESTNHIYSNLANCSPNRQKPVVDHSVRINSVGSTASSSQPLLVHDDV

[15] = Tmax in fasted Sprague-Dawley rat at 25 mg/kg, po; type: ADME, organism-based; conditions: in vivo
[16] = Cmax in fasted Sprague-Dawley rat at 25 mg/kg, po; type: ADME, organism-based; set-up: dose 25 mg/kg, route po; conditions: in vivo
[17] = AUC (0 to infinity) in Sprague-Dawley rat at 5 mg/kg, iv; type: ADME, organism-based; set-up: dose 5 mg/kg, route iv; conditions: in vivo
[18] = target: Proto-oncogene tyrosine-protein kinase receptor Ret (Mus musculus) (UniProt P35546); assay: Inhibition of RET signalling pathway in mouse BaF3 cells harboring CCDC6-RET-G810C mutant assessed as suppression of SHC activation incubated for 4 hrs by Western blot analysis; type: cell-based; conditions: dose <= 300.0 nM
[19] = target: Proto-oncogene tyrosine-protein kinase receptor Ret (Mus musculus) (UniProt P35546); assay: Inhibition of RET signalling pathway in mouse BaF3 cells harboring CCDC6-RET-V804M mutant assessed as suppression of RET phosphorylation at 33.3 nM incubated for 4 hrs by Western blot analysis; type: cell-based
[20] = target: Proto-oncogene tyrosine-protein kinase receptor Ret (Homo sapiens, UniProt P07949, V804M); assay: Inhibition of RET V804M mutant (unknown origin) by DiscoverX KINOMEscan assay
[21] = target: Epithelial discoidin domain-containing receptor 1 (Homo sapiens, UniProt Q08345); assay: Inhibition of DDR1 (unknown origin) by DiscoverX KINOMEscan assay
[22] = Cmax in Sprague-Dawley rat at 5 mg/kg, iv; type: ADME, organism-based; set-up: dose 5 mg/kg, route iv; conditions: in vivo
[23] = target: Proto-oncogene tyrosine-protein kinase receptor Ret (Mus musculus) (UniProt P35546); assay: Inhibition of RET signalling pathway in mouse BaF3 cells harboring CCDC6-RET-V804M mutant assessed as suppression of SHC activation at 33.3 nM incubated for 4 hrs by Western blot analysis; type: cell-based
[24] = target: Macrophage colony-stimulating factor 1 receptor (Homo sapiens, UniProt P07333); assay: Inhibition of CSF1R (unknown origin) by DiscoverX KINOMEscan assay
[25] = Half life in Sprague-Dawley rat at 5 mg/kg, iv; type: ADME, organism-based; conditions: in vivo
[26] = target: Epidermal growth factor receptor (Homo sapiens, UniProt P00533); assay: Inhibition of EGFR (unknown origin) by DiscoverX KINOMEscan assay
Chain of Epidermal growth factor receptor (P00533 whole entry): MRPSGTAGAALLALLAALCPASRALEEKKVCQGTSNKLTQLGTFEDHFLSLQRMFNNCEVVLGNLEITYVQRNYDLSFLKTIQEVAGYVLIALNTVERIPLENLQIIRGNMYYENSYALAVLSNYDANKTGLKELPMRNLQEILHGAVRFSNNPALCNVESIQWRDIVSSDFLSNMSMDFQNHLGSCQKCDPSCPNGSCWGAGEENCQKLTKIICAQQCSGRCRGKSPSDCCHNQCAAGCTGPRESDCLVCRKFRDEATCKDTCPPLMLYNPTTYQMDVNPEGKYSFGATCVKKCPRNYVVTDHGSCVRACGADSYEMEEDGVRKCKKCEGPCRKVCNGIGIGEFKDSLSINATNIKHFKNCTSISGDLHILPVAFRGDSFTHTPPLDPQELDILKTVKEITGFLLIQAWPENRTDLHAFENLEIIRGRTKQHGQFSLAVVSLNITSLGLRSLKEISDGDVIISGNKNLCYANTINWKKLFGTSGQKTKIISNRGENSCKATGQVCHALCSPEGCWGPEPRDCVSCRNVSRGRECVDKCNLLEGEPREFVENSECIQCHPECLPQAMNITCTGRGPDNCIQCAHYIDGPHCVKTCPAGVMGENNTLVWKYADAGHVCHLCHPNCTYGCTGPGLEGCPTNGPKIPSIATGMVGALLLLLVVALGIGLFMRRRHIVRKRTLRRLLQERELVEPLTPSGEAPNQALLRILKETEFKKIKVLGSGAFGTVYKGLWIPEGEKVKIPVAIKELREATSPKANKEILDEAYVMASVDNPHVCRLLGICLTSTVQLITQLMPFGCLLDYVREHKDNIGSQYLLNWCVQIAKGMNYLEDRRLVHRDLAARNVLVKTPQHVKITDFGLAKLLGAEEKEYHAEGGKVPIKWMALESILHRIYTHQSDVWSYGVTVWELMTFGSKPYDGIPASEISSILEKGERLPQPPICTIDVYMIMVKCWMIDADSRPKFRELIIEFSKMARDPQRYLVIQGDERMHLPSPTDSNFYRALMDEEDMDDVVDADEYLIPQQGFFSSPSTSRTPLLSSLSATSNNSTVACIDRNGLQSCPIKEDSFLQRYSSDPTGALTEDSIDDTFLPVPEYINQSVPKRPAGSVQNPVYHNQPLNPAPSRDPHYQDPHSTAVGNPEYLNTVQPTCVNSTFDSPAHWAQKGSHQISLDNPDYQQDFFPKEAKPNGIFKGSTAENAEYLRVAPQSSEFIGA

[27] = target: Proto-oncogene tyrosine-protein kinase receptor Ret (Mus musculus) (UniProt P35546); assay: Inhibition of RET signalling pathway in mouse BaF3 cells harboring CCDC6-RET-G810C mutant assessed as suppression of SHC activation at 33.3 nM incubated for 4 hrs by Western blot analysis; type: cell-based
[28] = target: Proto-oncogene tyrosine-protein kinase receptor Ret (Mus musculus) (UniProt P35546); assay: Inhibition of RET signalling pathway in mouse BaF3 cells harboring CCDC6-RET-G810C mutant assessed as suppression of RET activation incubated for 4 hrs by Western blot analysis; type: cell-based; conditions: dose <= 300.0 nM
[29] = Bioavailability in fasted Sprague-Dawley rat at 25 mg/kg, po; type: ADME, organism-based; conditions: in vivo
[30] = target: Vascular endothelial growth factor receptor 2 (Homo sapiens, UniProt P35968); assay: Inhibition of VEGFR2 (unknown origin) by DiscoverX KINOMEscan assay

## CC(C)(C)c1cc(NC(=O)Nc2ccc(-c3cc(-c4ccc(OCCN5CCOCC5)cc4F)[nH]n3)cc2)no1
[1]
  IC50: 0.0179 µM
[2]
  IC50: 0.412 µM
[3]
  IC50: 0.0181 µM
[4]
  IC50: > 10 µM
[5]
  Kd: 0.0083 µM
[6]
  IC50: > 10 µM

## CC(C)(C)c1cc(NC(=O)Nc2ccc(-c3cc(-c4ccc(OCCN5CCOCC5)cc4)[nH]n3)cc2Cl)no1
[1]
  IC50: 0.029 µM
[2]
  IC50: 0.335 µM
[3]
  IC50: 0.036 µM
[4]
  IC50: 0.746 µM
[5]
  Kd: 0.021 µM
[6]
  IC50: > 10 µM

## CC(C)(C)c1cc(NC(=O)Nc2ccc(-c3n[nH]c(-c4ccc(OCCN5CCOCC5)cc4Cl)n3)cc2)no1
[1]
  IC50: 0.328 µM
[2]
  IC50: 0.682 µM
[3]
  IC50: 0.339 µM
[4]
  IC50: 0.869 µM
[5]
  Kd: 0.0102 µM
[6]
  IC50: 0.424 µM

## Cc1cc(OCCN2CCOCC2)ccc1-c1cc(-c2ccc(NC(=O)Nc3cc(C(C)(C)C)on3)cc2)n[nH]1
[1]
  IC50: 0.12 µM
[2]
  IC50: 2.04 µM
[3]
  IC50: 0.173 µM
[4]
  IC50: 1.96 µM
[5]
  Kd: 0.0125 µM
[6]
  IC50: > 3 µM

## COc1cc(-c2cc(-c3ccc(NC(=O)Nc4cc(C(C)(C)C)on4)cc3)n[nH]2)ccc1OCCN1CCOCC1
[1]
  IC50: 0.0121 µM
[2]
  IC50: 0.131 µM
[3]
  IC50: 0.0104 µM
[4]
  IC50: 0.417 µM
[5]
  Kd: 0.0061 µM
[6]
  IC50: 0.442 µM

## CC(C)(C)c1cc(NC(=O)Nc2ccc(-c3cc(-c4ccc(OCCN5CCOCC5)cc4)[nH]n3)cc2)no1
[1]
  IC50: 0.0093 µM
[7]
  IC50: 0.0161 µM
[8]
  inhibition: Active
[9]
  inhibition: Active
[10]
  half-life: 6.9 h
[11]
  AUC(0-inf): 20.5 µg·h/mL
[12]
  IC50: 0.0244 µM
[13]
  inhibition: Active
[14]
  IC50: 0.0216 µM
[15]
  Tmax: 6 h
[2]
  IC50: 0.0898 µM
[16]
  Cmax: 1.25 µg/mL
[17]
  AUC(0-inf): 15.6 µg·h/mL
[18]
  inhibition: Dose-Dependent Effect
[19]
  inhibition: Active
[20]
  IC50: 0.0154 µM
[21]
  IC50: 0.009 µM
[22]
  Cmax: 10.7 µg/mL
[23]
  inhibition: Active
[24]
  IC50: 0.033 µM
[25]
  half-life: 3.3 h
[26]
  IC50: > 1 µM
[3]
  IC50: 0.0094 µM
[4]
  IC50: 0.549 µM
[27]
  inhibition: Active
[28]
  inhibition: Dose-Dependent Effect
[29]
  bioavailability: 23.6%
[5]
  Kd: 0.0043 µM
[6]
  IC50: 1.23 µM
[30]
  IC50: 0.331 µM

## CC(C)(C)c1cc(NC(=O)Nc2ccc(-c3cc(-c4ccc(OCCN5CCOCC5)c(F)c4)[nH]n3)cc2)no1
[1]
  IC50: 0.0106 µM
[2]
  IC50: 0.126 µM
[3]
  IC50: 0.014 µM
[4]
  IC50: 2.25 µM
[5]
  Kd: 0.0097 µM
[6]
  IC50: > 10 µM

## COc1cc(-c2cc(-c3ccc(NC(=O)Nc4cc(C(C)(C)C(F)(F)F)on4)cc3)n[nH]2)ccc1OCCN1CCOCC1
[1]
  IC50: 0.0071 µM
[2]
  IC50: 0.139 µM
[3]
  IC50: 0.0052 µM
[4]
  IC50: 0.23 µM
[5]
  Kd: 0.0056 µM
[6]
  IC50: 0.184 µM

## CN(C)CCOc1ccc(-c2cc(-c3ccc(NC(=O)Nc4cc(C(C)(C)C)on4)cc3)n[nH]2)cc1
[1]
  IC50: 0.0079 µM
[2]
  IC50: 0.103 µM
[3]
  IC50: 0.0085 µM
[4]
  IC50: 0.842 µM
[5]
  Kd: 0.0032 µM
[6]
  IC50: 1.95 µM

## CC(C)(C)c1cc(NC(=O)Nc2ccc(-c3c[nH]c(-c4ccc(OCCN5CCOCC5)cc4Cl)n3)cc2)no1
[1]
  IC50: 0.404 µM
[2]
  IC50: 0.802 µM
[3]
  IC50: 0.491 µM
[4]
  IC50: 0.716 µM
[5]
  Kd: 0.0315 µM
[6]
  IC50: 0.772 µM

## CC(C)(C)c1cc(NC(=O)Nc2ccc(-c3cc(-c4cccc(OCCN5CCOCC5)c4)[nH]n3)cc2)no1
[1]
  IC50: 0.226 µM
[2]
  IC50: 0.587 µM
[3]
  IC50: 0.188 µM
[4]
  IC50: 1.02 µM
[5]
  Kd: 0.006 µM
[6]
  IC50: 1.56 µM

## CO[C@]1(C(=O)N[C@@H](C)c2ccc(-n3cc(F)cn3)nc2)CC[C@@H](c2nc(C)cc(Nc3cc(C)[nH]n3)n2)CC1
[1]
  IC50: 0.005 µM
[2]
  IC50: 0.114 µM
[3]
  IC50: 0.0041 µM
[4]
  IC50: 0.358 µM
[6]
  IC50: 1.04 µM
